According to patent US20190192060A1, “DEVICE AND METHOD FOR BLOOD VOLUME MEASUREMENT” (Oregon Health & Science University, priority 2017, published 2019):

Assays:
[1] = cited from earlier work
[2] = in vivo indicator dilution and elimination measured with intravenous optical fiber probe; conditions: healthy adult rhesus macaques, intravenous injection, reflectance in cephalic vein
[3] = cited from earlier work; remark: listed apart in the source

Q: With `CC1(C)C(/C=C/C=C/C=C/C=C2\N(CCCCS(=O)(=O)O)c3ccc4ccccc4c3C2(C)C)=[N+](CCCCS(=O)(=O)[O-])c2ccc3ccccc3c21` [ICG, indocyanine green] as the compound, how does the “time to elimination by the liver” value ([1]; after mixing in the circulating compartment) read?
A: ≤ 15 min

Q: What about the route of excretion ([1]; in vivo) of the same compound?
A: excreted unchanged in the bile

Q: And the “time until blood volume indicator values returned to baseline (non-detectable)” value [2]?
A: approximately 10 minutes

Q: What about the placental transfer ([3]; in vivo) of the same compound?
A: does not cross the placenta

Q: And the “harm to the fetus” value ([3]; used in many pregnant women)?
A: without any reports of harm to the fetus
